Consider 21 compounds from patent US12351597B2, “Substituted biphenyl or phenylheteroaryl-mannosides as antagonists of FimH” (GLAXOSMITHKLINE INTELLECTUAL PROPERTY DEVELOPMENT LIMITED, priority 2019, dated 2025).

In the experiment the target is T1, FimH (Escherichia coli, UniProt Q1R2J4).
T1 construct: endogenous in cells; host or cells: E. coli UTI89 whole bacteria (piliated), with guinea pig red blood cells
Kind of experiment: Hemagglutination inhibition assay (HAI). Format: cell-based. The settings on record: HAI titer / EC>90: concentration reducing bacterial agglutination of guinea pig red blood cells by >90%; UTI89 bacteria. An excerpt:
“HAI titer or EC>90” is that concentration of the FimH inhibitor/antagonist which reduces the bacterial agglutination of guinea pig red blood cells by greater than 90%.
The activities of the Examples 1-40 compounds above as FimH antagonists/inhibitors were obtained by the following assay(s), and values are provided in Table 1. The values not provided mean that the activities have not yet been tested.
Hemagglutination Inhibition Assay (HAI)
The hemagglutination inhibition (HAI) assay was performed with UTI89 bacteria and guinea pig red blood cells, as previously described (S. J. Hultgren, W. R. Schwan, A. J. Schaeffer, J. L. Duncan Infect. Immun. 1986, 54, 613-620 and Jarvis, C.; Han, Z.; Kalas, V.; Klein, R.; Pinkner, J. S.; Ford, B.; Binkley, J.; Cusumano, C. K.; Cusumano, Z.; Mydock-McGrane, L.; Hultgren, S. J.; Janetka, J. W., ChemMedChem 2016, 11, 367-373). Values not listed were not tested.

For the compound `Cc1cc(-c2ccc(C(F)(F)F)nc2)ccc1O[C@H]1O[C@H](CO)[C@@H](O)[C@H](O)[C@@H]1O` [Example 26], the “HAI nM” value is ““+++” (50-200)”.

As to `OC[C@H]1O[C@H](Oc2ccc(-c3cccc(C(F)(F)F)n3)cc2C(F)(F)F)[C@@H](O)[C@@H](O)[C@@H]1O` [Example 39], the “HAI nM” value is reported as ““+++” (50-200)”.

As to `Cc1cc(-c2cnc(C(F)(F)F)c(F)c2)ccc1O[C@H]1O[C@H](CO)[C@@H](O)[C@H](O)[C@@H]1O` [Example 21], the “HAI nM” value is given as ““+++” (50-200)”.

On to `Cc1cc(-c2cnccn2)ccc1O[C@H]1O[C@H](CO)[C@@H](O)[C@H](O)[C@@H]1O` [Example 23], for which the “HAI nM” value is recorded as ““+++” (50-200)”.

As for `Cc1cc(-c2cncc(C(F)(F)F)n2)ccc1O[C@H]1O[C@H](CO)[C@@H](O)[C@H](O)[C@@H]1O` [Example 34], the “HAI nM” value was ““+++” (50-200)”.

As for `Cc1cc(-c2ccc(C(F)(F)F)cn2)ccc1O[C@H]1O[C@H](CO)[C@@H](O)[C@H](O)[C@@H]1O` [Example 27], the “HAI nM” value was ““+++” (50-200)”.

Regarding `Cc1cc(-c2cccc(C(F)(F)F)n2)ccc1O[C@H]1O[C@H](CO)[C@@H](O)[C@H](O)[C@@H]1O` [Example 40], the “HAI nM” value is given as ““+++” (50-200)”.

Turning to `Cc1cc(-c2ccnc(N(C)C)c2)ccc1O[C@H]1O[C@H](CO)[C@@H](O)[C@H](O)[C@@H]1O` [Example 10], the “HAI nM” value is on record as ““++++” (<50)”.

For `Cc1cc(-c2ncc(C(F)(F)F)cn2)ccc1O[C@H]1O[C@H](CO)[C@@H](O)[C@H](O)[C@@H]1O` [Example 15], the “HAI nM” value is given as ““+++” (50-200)”.

For `Cc1cc(-c2nccnc2C(F)(F)F)ccc1O[C@H]1O[C@H](CO)[C@@H](O)[C@H](O)[C@@H]1O` [Example 29], the “HAI nM” value is recorded as ““+++” (50-200)”.

Take `OC[C@H]1O[C@H](Oc2ccc(-c3cc(C(F)(F)F)ccn3)cc2C(F)(F)F)[C@@H](O)[C@@H](O)[C@@H]1O` [Example 18]: the “HAI nM” value is reported as ““+++” (50-200)”.

With `OC[C@H]1O[C@H](Oc2c(F)cc(-c3cc(C(F)(F)F)ccn3)cc2C(F)(F)F)[C@@H](O)[C@@H](O)[C@@H]1O` [Example 19], the “HAI nM” value is listed as ““++++” (<50)”.

In the case of `N#Cc1cc(F)cc(-c2ccc(O[C@H]3O[C@H](CO)[C@@H](O)[C@H](O)[C@@H]3O)c(Cl)c2)c1` [Example 11], the “HAI nM” value is listed as ““+++” (50-200)”.

As for `OC[C@H]1O[C@H](Oc2ccc(-c3nccc(C(F)(F)F)n3)cc2C(F)(F)F)[C@@H](O)[C@@H](O)[C@@H]1O` [Example 13], the “HAI nM” value is ““+++” (50-200)”.

Regarding `COc1ccc(-c2ccc(O[C@H]3O[C@H](CO)[C@@H](O)[C@H](O)[C@@H]3O)c(C)c2)cn1` [Example 8], the “HAI nM” value was ““+++” (50-200)”.

Consider `OC[C@H]1O[C@H](Oc2ccc(-c3cc(C(F)(F)F)c(F)cn3)cc2C(F)(F)F)[C@@H](O)[C@@H](O)[C@@H]1O` [Example 20], for which the “HAI nM” value is recorded as ““+++” (50-200)”.

Regarding `OC[C@H]1O[C@H](Oc2ccc(-c3ccc(C(F)(F)F)cn3)cc2C(F)(F)F)[C@@H](O)[C@@H](O)[C@@H]1O` [Example 32], the “HAI nM” value was ““+++” (50-200)”.

Regarding `OC[C@H]1O[C@H](Oc2c(F)cc(-c3cnc(C(F)(F)F)cn3)cc2C(F)(F)F)[C@@H](O)[C@@H](O)[C@@H]1O` [Example 2, (2R,3S,4S,5S,6R)-2-(2-Fluoro-6-(trifluoromethyl)-4-(5-(trifluoromethyl)pyrazin-2-yl)phenoxy)-6-(hydroxymethyl)tetrahydro-2H-pyran-3,4,5-triol], the “HAI nM” value was ““++++” (<50)”.

As to `Cc1cc(-c2cnc(F)c(C(F)(F)F)c2)ccc1O[C@H]1O[C@H](CO)[C@@H](O)[C@H](O)[C@@H]1O` [Example 31], the “HAI nM” value is ““+++” (50-200)”.

`Cc1cc(-c2ccc(N3CCCC3)nc2)ccc1O[C@H]1O[C@H](CO)[C@@H](O)[C@H](O)[C@@H]1O` [Example 9]: the “HAI nM” value is ““++++” (<50)”.

Consider `OC[C@H]1O[C@H](Oc2ccc(-c3ncc(C(F)(F)F)cn3)cc2C(F)(F)F)[C@@H](O)[C@@H](O)[C@@H]1O` [Example 22], for which the “HAI nM” value is on record as ““+++” (50-200)”.
